What is called MRT is a mean duration of stay, worked out from the concentration-time curve.

Results on three compounds are retold here after patent US20250326722A1 (SHANGHAI HANSOH BIOMEDICAL CO., LTD., priority 2022, published 2025).

A short description of this series: Pharmacokinetic determination in mice (plasma). Conditions: C57 mice, PO administration, 5 mpk; for AUC(0-inf) / half-life / MRT / Cmax: male, C57BL/6J, mouse, 5 mg/kg; for AUC(0-inf): read-out: Area under the curve AUC0-∞; for half-life: read-out: Half-life t1/2 (converted); for MRT: read-out: Mean residence time MRT; for Cmax: read-out: Plasma concentration Cmax. It counts as in vivo, C57BL/6J mice. The procedure, abridged: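 Male C57BL/6J mice (n=3 per route), fasted overnight, got 5 mg/kg PO in 10% Solutol HS15 or 1 mg/kg IV in 5% DMSO/10% Solutol HS15/85% PBS. Orbital blood was sampled at 0.083 (IV only), 0.25, 0.5, 1, 2, 4, 8 and 24 h. EDTA-K2 plasma was quantified by LC-MS/MS for PK parameters.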

Turning to `O=C1c2c(cccc2C(F)(F)F)CN1c1ccc(N[C@H]2CC[C@H](Nc3ncc(C(F)(F)F)nn3)C2)nc1` [Example 157, 7-(Trifluoromethyl)-2-(6-(((1S,3S)-3-((6-(trifluoromethyl)-1,2,4-triazin-3-yl)amino)cyclopentyl)amino)pyridin-3-yl) isoindolin-1-one], the Time to peak tmax was 0.5 h, the AUC(0-inf) was 6200 ng·h/mL, the half-life was 3.1 h and the MRT came out at 2.6 h. Moreover, the Cmax is 2190 ng/mL.
`Cc1cc2c(cn1)CN(c1ccc(N[C@H]3CC[C@H](Nc4ncc(C(F)(F)F)nn4)C3)nc1)C2=O` [Example 148, 6-Methyl-2-(6-(((1S,3S)-3-((6-(trifluoromethyl)-1,2,4-triazin-3-yl)amino)cyclopentyl)amino)pyridin-3-yl)-2,3-dihydro-1H-pyrrolo[3,4-c]pyridin-1-one]: the Time to peak tmax was determined as 1 h, the AUC(0-inf) stood at 59800 ng·h/mL, the half-life is 3.4 h and the MRT came out at 4.3 h. For the same compound, the Cmax stood at 13500 ng/mL.
Regarding `O=C1c2ncccc2CN1c1ccc(N[C@H]2CC[C@H](Nc3ncc(C(F)(F)F)nn3)C2)nc1` [Example 144], the Time to peak tmax came to 1 h, the AUC(0-inf) stood at 15000 ng·h/mL, the half-life was 2.8 h and the mean residence time MRT stood at 4 h. Moreover, the Cmax was determined as 2820 ng/mL.
